Among the data in ChEMBL document CHEMBL1155243, “In vitro erythrocytic uptake studies of artemisinin and selected derivatives using LC-MS and 2D-QSAR analysis of uptake in parasitized erythrocytes” (Bioorg Med Chem, 2009) are Drug uptake and Activity values, retold here.

Conditions in all cases: erythrocyte
Series [1] in a line: Drug uptake in human type-A RBC at 3.55 uM after 2 hrs by LC-MS analysis. The class given is ADME, cell-based.
Series [2] in a line: Drug uptake in human type-A erythrocytes infected with Plasmodium falciparum D6 at 3.55 uM after 2 hrs by LC-MS analysis. It is filed as ADME, cell-based.
Series [3] in a line: Toxicity in human type-A RBC assessed as hematocrit at 3.55 uM after 2 hrs. It is filed as cell-based.

`C[C@@H]1CC[C@H]2CC(=O)N(CCc3ccccc3)[C@@H]3O[C@]4(C)CC[C@@H]1[C@@]23OO4`: the Drug uptake in series [1] stood at 38.43%; in series [2], 61.8%. Besides, in series [3], the Activity came out at 33%.

On to `C[C@@H]1CC[C@H]2[C@@H](CCCc3ccc(O)cc3)C(=O)O[C@@H]3O[C@]4(C)CC[C@@H]1[C@]32OO4.Cl`, for which the Drug uptake in series [1] worked out at 39.01%; in series [2], 63.09%. Also, the Activity in series [3] stood at 33%.

Regarding `C[C@@H]1CC[C@H]2CC(=O)O[C@@H]3O[C@]4(CC(=O)O)CC[C@@H]1[C@@]23OO4`, the Drug uptake in series [1] came out at 34.03%; in series [2] it was 54.51%. In addition, the Activity in series [3] amounted to 33%.

For `C[C@@H]1[C@@H](OC(=O)Nc2ccccc2)C[C@H]2[C@@H](C)C(=O)O[C@@H]3O[C@]4(C)CC[C@@H]1[C@]32OO4`, the Drug uptake is given as 32.18% in series [1] and 51.04% in series [2]. Moreover, the Activity in series [3] is on record as 33%.

In the case of `C[C@@H]1CC[C@H]2[C@@H](C)C(=O)O[C@@H]3O[C@@]4(C)CC[C@@H]1[C@]32OO4` [ARTEMISININ], the Drug uptake in series [1] came to 34.68%; in series [2] it was 61.07%. In series [3], the Activity was 33%.

For `C[C@@H]1CC[C@H]2[C@@H](CCCc3cc(F)cc(F)c3)CO[C@@H]3O[C@]4(C)CC[C@@H]1[C@]32OO4`, the Drug uptake in series [1] came out at 40.01%; in series [2], 70.91%. Moreover, the Activity in series [3] turned out to be 33%.

In the case of `CCCC[C@H]1C(=O)O[C@@H]2O[C@]3(CC)CC[C@H]4[C@H](C)CC[C@@H]1[C@@]24OO3`, the Drug uptake in series [1] came to 39.11%; in series [2], 62.5%. For the same molecule, in series [3], the Activity is 33%.

As to `C[C@@H]1CC[C@H]2[C@@H](CCCc3ccc(S(C)(=O)=O)cc3)C(=O)O[C@@H]3O[C@]4(C)CC[C@@H]1[C@]32OO4`, the Drug uptake in series [1] is on record as 38.53%; in series [2], 61.9%. Further, the Activity in series [3] stood at 33%.

On to `C[C@@H]1[C@@H](OC(=O)Nc2cccc3ccccc23)C[C@H]2[C@@H](C)C(=O)O[C@@H]3O[C@]4(C)CC[C@@H]1[C@]32OO4`, for which the Drug uptake is given as 32.63% in series [1] and 51.68% in series [2]. In series [3], the Activity is reported as 33%.

Take `C[C@@H]1CC[C@H]2[C@@H](CCCc3cccc(Cl)c3)[C@H](O)O[C@@H]3O[C@]4(C)CC[C@@H]1[C@]32OO4`: the values for the Drug uptake in series [1] and in series [2] were 40.13% and 71.21%, respectively. In addition, in series [3], the Activity amounted to 33%.

`C[C@@H]1[C@@H](O)C[C@H]2[C@@H](C)C(=O)O[C@@H]3O[C@]4(C)CC[C@@H]1[C@]32OO4`: the Drug uptake in series [1] worked out at 33.1%; in series [2] it was 53.9%. In series [3], the Activity came out at 33%.

Turning to `C[C@H]1C(=O)O[C@@H]2O[C@@]3(C)CC[C@@H]4[C@@]2(OO3)[C@H]1CC[C@]4(C)O`, the Drug uptake worked out at 32.99% in series [1] and 53.89% in series [2]. Also, in series [3], the Activity turned out to be 33%.

Take `C[C@@H]1CC[C@H]2[C@@H](CCCc3ccc(N(C)C)cc3)C(=O)O[C@@H]3O[C@]4(C)CC[C@@H]1[C@]32OO4.Cl`: the values for the Drug uptake in series [1] and in series [2] were 32.82% and 51.92%, respectively. Besides, the Activity in series [3] was 33%.

Consider `C[C@@H]1CC[C@H]2[C@@H](CCCc3cc(C(F)(F)F)cc(C(F)(F)F)c3)C(=O)O[C@@H]3O[C@]4(C)CC[C@@H]1[C@]32OO4`, for which the Drug uptake in series [1] is 41.07%; in series [2], 72.09%. For the same molecule, in series [3], the Activity stood at 33%.

With `C[C@@H]1CC[C@H]2[C@@H](CN3C(=O)CCC3=O)C(=O)O[C@@H]3O[C@]4(C)CC[C@@H]1[C@]32OO4`, the values for the Drug uptake in series [1] and in series [2] were 36.57% and 66.06%, respectively. Besides, the Activity in series [3] is recorded as 33%.

Turning to `C[C@@H]1[C@@H](OC(=O)NC2CC2c2ccccc2)C[C@H]2[C@@H](C)C(=O)O[C@@H]3O[C@]4(C)CC[C@@H]1[C@]32OO4` (some centres undefined), the values for the Drug uptake in series [1] and in series [2] were 32.31% and 51.63%, respectively. In addition, in series [3], the Activity is recorded as 33%.

As to `CCCCCCCCCCCCCC[C@H]1C(=O)O[C@@H]2O[C@]3(C)CC[C@H]4[C@H](C)CC[C@@H]1[C@@]24O3`, the figures for the Drug uptake in series [1] and in series [2] were 45.09% and 73%, respectively. For the same molecule, the Activity in series [3] is 33%.

Consider `CC(C)CN1C(=O)C[C@@H]2CC[C@@H](C)[C@@H]3CC[C@]4(C)OO[C@@]23[C@H]1O4`, for which the Drug uptake was 35.17% in series [1] and 61.51% in series [2]. For the same molecule, in series [3], the Activity was 33%.

Take `C[C@@H]1CC[C@H]2CC(=O)O[C@@H]3O[C@]4(CCc5ccccc5)CC[C@@H]1[C@@]23OO4`: the values for the Drug uptake in series [1] and in series [2] were 38.96% and 62.34%, respectively. Besides, in series [3], the Activity is 33%.

As to `C[C@@H]1CC[C@H]2[C@@H](CCCc3cc(C(F)(F)F)cc(C(F)(F)F)c3)[C@H](O)O[C@@H]3O[C@]4(C)CC[C@@H]1[C@]32OO4`, the figures for the Drug uptake in series [1] and in series [2] were 40.43% and 71.76%, respectively. In addition, in series [3], the Activity was determined as 33%.

As to `C[C@@H]1CC[C@H]2[C@@H](CC(=O)O)C(=O)O[C@@H]3O[C@]4(C)CC[C@@H]1[C@]32OO4`, the Drug uptake in series [1] worked out at 33.92%; in series [2] it was 54.23%. Besides, the Activity in series [3] is given as 33%.

For `C[C@@H]1CC[C@H]2[C@@H](CCCc3cc(C(F)(F)F)cc(C(F)(F)F)c3)CO[C@@H]3O[C@]4(C)CC[C@@H]1[C@]32OO4`, the Drug uptake in series [1] was 42.11%; in series [2] it was 72%. In addition, the Activity in series [3] is reported as 33%.

For `C[C@@H]1CC[C@H]2[C@@H](CN3C(=O)CSC3=O)C(=O)O[C@@H]3O[C@]4(C)CC[C@@H]1[C@]32OO4`, the Drug uptake in series [1] is recorded as 33.94%; in series [2], 57.69%. Also, the Activity in series [3] came out at 33%.
